From patent publication EP0006061A1, “Medicinal compound consisting of a derivative of cyclopentyl aldehyde” (INSTITUT DE RECHERCHES CHIMIQUES ET BIOLOGIQUES APPLIQUEES …, priority 1978, dated 1979)
Converted amounts (≈) assume the structure as drawn.

Columns and labels:
[1] = system: cobayes; assay: histamine aerosol bronchospasm (time to apnoea); type: in vivo; details: 0,1 mg/kg, aerosol for 10 min before histamine aerosol; controls 108 ± 18
Experimental: (§1) Les essais pharmaceutiques qui ont été mis en oeuvre avec les produits des exemples 1 et 4, ont été résumés ci-après : • 1°/ essais avec l'exemple 1 • a/ activité bactériostatique L' α-(2-formyl-3-méthyl-cyclopentyl)-acétal- déhyde inhibe les bactéries Gram (+) et Gram (-). Les CMI (concentration minimale inhibitrice) sont les suivantes : 0,75 mg/ml sur Staphylococcus aureus Londres, 1,2 mg/ml sur Escherichia coli, et 1,5 mg/ml sur Proteus • b/ activité antispasmodique : Les DE-50 du produit de l'exemple 1 ont été déterminés • (i) in vitro sur iléon isolé de cobaye vis à vis de l'histamine : DE - 50 = 50 γ/ml; • (ii) in vivo sur l'animal vivant selon la méthode de KONZETT & ROESLLER : DE - 50 = 2,6 mg/kg par administration i.v. • c/ activité antianaphylactique : Des cobayes mâles sont sensibilisés par deux injections de 0,5 ml d'une solution d'albumine à 2 g/1, à deux jours d'intervalle. Quatre semaines aprës,le choc anaphylactique mortel est provoqué par injection i.v. de 0,2 ml d'une solution aqueuse d'ovalbumine à 2 g/1. Les produits à tester sont administrés 30 mn avant (administration i.p.) ou en même temps (administration i.v.) que l'injection provoquant ledit choc anaphylactique. Les résultats sont donnés dans le tableau I pour le produit de l'exemple 1 et la Prométhazine en tant que produit de référence : [formula] • 2°/ essais avec le produit de l'exemple 4 (constitué par un mélange de 87 % en poids d'isomère "cis-trans" et 13 % en poids d'isomère "trans-cis). • a/ activité bactériostatigue : Le produit de l'exemple 4 inhibe les bactéries Gram (+) et Gram (-). […]

[2] = system: Proteus; assay: bacteriostatic activity (MIC); type: cell-based; details: read-out: CMI (concentration minimale inhibitrice)
Experimental: (§2) Les essais pharmaceutiques qui ont été mis en oeuvre avec les produits des exemples 1 et 4, ont été résumés ci-après : • 1°/ essais avec l'exemple 1 • a/ activité bactériostatique L' α-(2-formyl-3-méthyl-cyclopentyl)-acétal- déhyde inhibe les bactéries Gram (+) et Gram (-). Les CMI (concentration minimale inhibitrice) sont les suivantes : 0,75 mg/ml sur Staphylococcus aureus Londres, 1,2 mg/ml sur Escherichia coli, et 1,5 mg/ml sur Proteus • b/ activité antispasmodique : Les DE-50 du produit de l'exemple 1 ont été déterminés • (i) in vitro sur iléon isolé de cobaye vis à vis de l'histamine : DE - 50 = 50 γ/ml; • (ii) in vivo sur l'animal vivant selon la méthode de KONZETT & ROESLLER : DE - 50 = 2,6 mg/kg par administration i.v. • c/ activité antianaphylactique : Des cobayes mâles sont sensibilisés par deux injections de 0,5 ml d'une solution d'albumine à 2 g/1, à deux jours d'intervalle. Quatre semaines aprës,le choc anaphylactique mortel est provoqué par injection i.v. de 0,2 ml d'une solution aqueuse d'ovalbumine à 2 g/1. Les produits à tester sont administrés 30 mn avant (administration i.p.) ou en même temps (administration i.v.) que l'injection provoquant ledit choc anaphylactique. Les résultats sont donnés dans le tableau I pour le produit de l'exemple 1 et la Prométhazine en tant que produit de référence : [formula] • 2°/ essais avec le produit de l'exemple 4 (constitué par un mélange de 87 % en poids d'isomère "cis-trans" et 13 % en poids d'isomère "trans-cis). • a/ activité bactériostatigue : Le produit de l'exemple 4 inhibe les bactéries Gram (+) et Gram (-). Ses CMI sont les suivantes : • 1,5 mg/m sur Staphylococcus aureus, Londres • 1 mg/ml sur Escherichia coli (souche 548) • 1,75 mg/ml sur Proteus vulgaris (souche 1557) • 2,5 mg/ml sur Klebsiella pneumoniae (souche 433), • 1 mg/ml sur Salmonella typhi murium (souche IP), • 1,5 mg/ml sur Staphylococcus aureus (souche 634), • 1,25 mg/ml sur Streptococcus (souche 1178) • 1,25 mg/ml sur Bacillus substilis, (les souches 548, 1557, 433, 634, et 1178 étant celles du catalogue de la collection du "Centre International de Distribution de Souches et d'Information sur les Types Microbiens" de . Lausanne, et la souche "IP" provenant de l'Institut Pasteur de Paris. • b/ activité bactéricide Le produit de l'exemple 4 détruit les bactéries Gram (+) et Gram (-). Ses CMB (concentration minimalebactéricide) déterminées sur milieu solide (quand moins de 0,01% de germes survivent) sont : • 1,75 mg/ml sur Staphylococcus aureus Londres • 1,5 mg/ml sur Escherichia coli (souche 548) • 2 mg/ml sur Proteus vulgaris (souche 1557) • 3 mg/ml sur Klebsiella pneumoniae (souche 433), • 1,25 mg/ml sur Salmonella typhi murium (souche I.P.) • 1,75 mg/ml sur Staphylococcus aureus (souche 634) • 2 mg/ml sur Streptococcus (souche 1178) • 2,5 mg/ml sur Bacillus substilis. • c/ activité bronchospatique Des cobayes mâles ou femelles [20 animaux (pesant 300-500 g) par dose et par produit à tester] sont exposés à un aérosol de l'exemple 4 (50 g/l en solution eau-éthanol) ou de Prométhazine (produit de référence) pendant 10 mn.

[3] = system: Staphylococcus aureus Londres; assay: bacteriostatic activity (MIC); type: cell-based; details: read-out: CMI (concentration minimale inhibitrice)
Experimental: as §2

[4] = system: Escherichia coli; assay: bacteriostatic activity (MIC); type: cell-based; details: read-out: CMI (concentration minimale inhibitrice)
Experimental: as §2

[5] = system: iléon isolé de cobaye; assay: antispasmodic activity in vitro against histamine on isolated ileum; type: cell-based; details: isolated guinea pig ileum, read-out: DE - 50 (the source's name)
Experimental: as §1, with “anaphylactique.” for “anaphylactique. Les résultats sont donnés dans le tableau I pour le produit de l'exemple 1 et la Prométhazine en tant que produit de référence : [formula] • 2°/ essais avec le produit de l'exemple 4 (constitué par un mélange de 87 % en poids d'isomère "cis-trans" et 13 % en poids d'isomère "trans-cis). • a/ activité bactériostatigue : Le produit de l'exemple 4 inhibe les bactéries Gram (+) et Gram (-).”

[6] = system: l'animal vivant; assay: antispasmodic activity in vivo, method of KONZETT & ROESLLER; details: iv, i.v. administration, read-out: DE - 50 (the source's name)
Experimental: as §1, with “anaphylactique.” for “anaphylactique. Les résultats sont donnés dans le tableau I pour le produit de l'exemple 1 et la Prométhazine en tant que produit de référence : [formula] • 2°/ essais avec le produit de l'exemple 4 (constitué par un mélange de 87 % en poids d'isomère "cis-trans" et 13 % en poids d'isomère "trans-cis). • a/ activité bactériostatigue : Le produit de l'exemple 4 inhibe les bactéries Gram (+) et Gram (-).”

SMILES | Apparition de l'apnée (en secondes) [1] [secondes] | MIC [2] [µg/mL] | MIC [3] [µg/mL] | MIC [4] [µg/mL] | EC50 [5] [µg/mL] | ED50 [6] [mg/kg]
CC(CN1c2ccccc2Sc2ccccc21)N(C)C (stereo not drawn) [Prométhazine, reference compound] | >600 |  |  |  |  | 
CC1CCC(CC=O)C1C=O (stereo not drawn) [Ex. 1, α-(2-formyl-3-méthyl-cyclopentyl)-acétaldéhyde] |  | 1500 (≈ 9.73 mM) | 750 (≈ 4.86 mM) | 1200 (≈ 7.78 mM) | 50 (≈ 0.324 mM) | 2.6
